Here are results for six compounds from PubChem BioAssay AID1259407 (Chemical Carcinogenesis Research Information System (CCRIS), 2018).

The structures appear in SMILES notation. The source made the active and inactive calls. No rule for the calls is given here.

The test system of the data set is CCRIS mutagenicity, Ames/micronucleus/aberration tests. Kind of data set: CCRIS mutagenicity studies.
Where [1] appears, read: Test System: AMES SALMONELLA TYPHIMURIUM, Strain/Indicator: TA98, Metabolic Activation: NONE, Method: STANDARD PLATE.
Where [2] appears, read: Test System: AMES SALMONELLA TYPHIMURIUM, Strain/Indicator: TA100, Metabolic Activation: NONE, Method: PREINCUBATION
The mark [3] stands for this setting: Test System: AMES SALMONELLA TYPHIMURIUM, Strain/Indicator: TA100, Metabolic Activation: NONE, Method: STANDARD PLATE.
The mark [4] stands for this setting: Test System: AMES SALMONELLA TYPHIMURIUM, Strain/Indicator: TA98, Metabolic Activation: NONE, Method: PREINCUBATION

For the compound `O=C(O)/C=C/c1ccccc1`, the mutagenic call (Test System: AMES SALMONELLA TYPHIMURIUM, Strain/Indicator: TA98, Metabolic Activation: HAMSTER, LIVER, S-9, AROCLOR 1254 (2.5-20%), Method: PREINCUBATION) is “inactive; negative”; the mutagenic call (Test System: AMES SALMONELLA TYPHIMURIUM, Strain/Indicator: TA98, Metabolic Activation: HAMSTER, LIVER, S-9, AROCLOR 1254, Method: STANDARD PLATE) is “inactive; negative”; the mutagenic call under setting [1] is “inactive; negative”; the mutagenic call (Test System: AMES SALMONELLA TYPHIMURIUM, Strain/Indicator: TA98, Metabolic Activation: RAT, LIVER, S-9, AROCLOR 1254, Method: STANDARD PLATE) is “inactive; negative”; the mutagenic call (Test System: AMES SALMONELLA TYPHIMURIUM, Strain/Indicator: TA100, Metabolic Activation: HAMSTER, LIVER, S-9, AROCLOR 1254 (2.5-20%), Method: PREINCUBATION) is “inactive; negative”; the mutagenic call (Test System: AMES SALMONELLA TYPHIMURIUM, Strain/Indicator: TA100, Metabolic Activation: HAMSTER, LIVER, S-9, AROCLOR 1254, Method: STANDARD PLATE) was “inactive; negative”. The mutagenic call by setting is: under setting [2], “inactive; negative”; under setting [3], “inactive; negative”; (Test System: AMES SALMONELLA TYPHIMURIUM, Strain/Indicator: TA100, Metabolic Activation: RAT, LIVER, S-9, AROCLOR 1254, Method: PREINCUBATION) “inactive; negative”; (Test System: AMES SALMONELLA TYPHIMURIUM, Strain/Indicator: TA100, Metabolic Activation: RAT, LIVER, S-9, AROCLOR 1254, Method: STANDARD PLATE) “inactive; negative”; (Test System: AMES SALMONELLA TYPHIMURIUM, Strain/Indicator: TA102, Metabolic Activation: HAMSTER, LIVER, S-9, AROCLOR 1254, Method: PREINCUBATION) “inactive; negative”; (Test System: AMES SALMONELLA TYPHIMURIUM, Strain/Indicator: TA102, Metabolic Activation: NONE, Method: PREINCUBATION) “inactive; negative”. The mutagenic call by setting is: (Test System: AMES SALMONELLA TYPHIMURIUM, Strain/Indicator: TA102, Metabolic Activation: RAT, LIVER, S-9, AROCLOR 1254, Method: PREINCUBATION) “inactive; negative”; (Test System: AMES SALMONELLA TYPHIMURIUM, Strain/Indicator: TA1535, Metabolic Activation: HAMSTER, LIVER, S-9, AROCLOR 1254, Method: STANDARD PLATE) “inactive; negative”; (Test System: AMES SALMONELLA TYPHIMURIUM, Strain/Indicator: TA1535, Metabolic Activation: NONE, Method: STANDARD PLATE) “inactive; negative”; (Test System: AMES SALMONELLA TYPHIMURIUM, Strain/Indicator: TA1535, Metabolic Activation: RAT, LIVER, S-9, AROCLOR 1254, Method: STANDARD PLATE) “inactive; negative”; (Test System: AMES SALMONELLA TYPHIMURIUM, Strain/Indicator: TA1537, Metabolic Activation: HAMSTER, LIVER, S-9, AROCLOR 1254, Method: STANDARD PLATE) “inactive; negative”; (Test System: AMES SALMONELLA TYPHIMURIUM, Strain/Indicator: TA1537, Metabolic Activation: NONE, Method: STANDARD PLATE) “inactive; negative”. In addition, the mutagenic call runs as follows: (Test System: AMES SALMONELLA TYPHIMURIUM, Strain/Indicator: TA1537, Metabolic Activation: RAT, LIVER, S-9, AROCLOR 1254, Method: STANDARD PLATE) “inactive; negative”; (Test System: AMES SALMONELLA TYPHIMURIUM, Strain/Indicator: TA1538, Metabolic Activation: HAMSTER, LIVER, S-9, AROCLOR 1254, Method: STANDARD PLATE) “inactive; negative”; (Test System: AMES SALMONELLA TYPHIMURIUM, Strain/Indicator: TA1538, Metabolic Activation: NONE, Method: STANDARD PLATE) “inactive; negative”; (Test System: AMES SALMONELLA TYPHIMURIUM, Strain/Indicator: TA1538, Metabolic Activation: RAT, LIVER, S-9, AROCLOR 1254, Method: STANDARD PLATE) “inactive; negative”; (Test System: MOUSE LYMPHOMA, Strain/Indicator: L5178Y (TK+/TK-), Metabolic Activation: NONE, Method: SUSPENSION/PLATE) “active; positive. reevaluation of results: equivocal”; (Test System: Mouse lymphoma, Strain/Indicator: L5178Y (tk+/tk-), Metabolic Activation: Rat, Liver, S-9, Aroclor 1254, Method: Suspension/plate) “inactive; negative”.
Turning to `COP(=S)(OC)Oc1ccc(SC)c(C)c1`, the mutagenic call is “active; positive (structural changes)” (End Point: IN VITRO CHROMOSOMAL ABERRATIONS, Test System: HUMAN PERIPHERAL LYMPHOCYTES, Metabolic Activation: NONE); “inactive; negative” (End Point: In vitro chromosomal aberration, Test System: Chinese hamster ovary (CHO) cells, Metabolic Activation: None); “inactive; negative” (End Point: In vitro chromosomal aberration, Test System: Chinese hamster ovary (CHO) cells, Metabolic Activation: Rat, Liver, S-9); “active; positive” (Test System: UDS Rat hepatocytes, Strain/Indicator: Thymidine incorporation, Metabolic Activation: None, Method: Autoradiography).
Turning to `O=[N+]([O-])c1ccccc1Br`, the mutagenic call by setting is: under setting [4], “inactive; negative”; under setting [2], “inactive; negative”; (Test System: AMES SALMONELLA TYPHIMURIUM, Strain/Indicator: TA100, Metabolic Activation: RAT, LIVER, S-9, KANECHLOR 500, Method: PREINCUBATION) “active; positive”.
For the compound `OCC(CBr)(CBr)CBr`, the mutagenic call is, setting by setting: (Test System: AMES SALMONELLA TYPHIMURIUM, Strain/Indicator: TA98, Metabolic Activation: HAMSTER, LIVER, S-9, AROCLOR 1254 (10%), Method: PREINCUBATION) “inactive; negative”; under setting [4], “inactive; negative”; (Test System: AMES SALMONELLA TYPHIMURIUM, Strain/Indicator: TA98, Metabolic Activation: RAT, LIVER, S-9, AROCLOR 1254 (10%), Method: PREINCUBATION) “inactive; negative”; (Test System: AMES SALMONELLA TYPHIMURIUM, Strain/Indicator: TA100, Metabolic Activation: HAMSTER, LIVER, S-9, AROCLOR 1254 (10%), Method: PREINCUBATION) “inactive; negative”; under setting [2], “inactive; negative”; (Test System: AMES SALMONELLA TYPHIMURIUM, Strain/Indicator: TA100, Metabolic Activation: RAT, LIVER, S-9, AROCLOR 1254 (10%), Method: PREINCUBATION) “inactive; negative”. Moreover, the mutagenic call runs as follows: (Test System: AMES SALMONELLA TYPHIMURIUM, Strain/Indicator: TA1535, Metabolic Activation: HAMSTER, LIVER, S-9, AROCLOR 1254 (10%), Method: PREINCUBATION) “active; positive”; (Test System: AMES SALMONELLA TYPHIMURIUM, Strain/Indicator: TA1535, Metabolic Activation: NONE, Method: PREINCUBATION) “inactive; negative”; (Test System: AMES SALMONELLA TYPHIMURIUM, Strain/Indicator: TA1535, Metabolic Activation: RAT, LIVER, S-9, AROCLOR 1254 (10%), Method: PREINCUBATION) “inactive; negative”; (Test System: AMES SALMONELLA TYPHIMURIUM, Strain/Indicator: TA1537, Metabolic Activation: HAMSTER, LIVER, S-9, AROCLOR 1254 (10%), Method: PREINCUBATION) “inactive; negative”; (Test System: AMES SALMONELLA TYPHIMURIUM, Strain/Indicator: TA1537, Metabolic Activation: NONE, Method: PREINCUBATION) “inactive; negative”; (Test System: AMES SALMONELLA TYPHIMURIUM, Strain/Indicator: TA1537, Metabolic Activation: RAT, LIVER, S-9, AROCLOR 1254 (10%), Method: PREINCUBATION) “inactive; negative”.
With `[Be]=[O]`, the mutagenic call is, setting by setting: under setting [4], “inactive; negative”; (Test System: AMES SALMONELLA TYPHIMURIUM, Strain/Indicator: TA98, Metabolic Activation: RAT, LIVER, S-9 (10%), Method: PREINCUBATION) “inactive; negative”; under setting [2], “inactive; negative”; (Test System: AMES SALMONELLA TYPHIMURIUM, Strain/Indicator: TA100, Metabolic Activation: RAT, LIVER, S-9 (10%), Method: PREINCUBATION) “inactive; negative”.
`Cc1cccc2c1ccc1ccccc12`: the mutagenic call was “inactive; negative” (Test System: AMES SALMONELLA TYPHIMURIUM, Strain/Indicator: TA97, Metabolic Activation: NONE, Method: STANDARD PLATE); “active; positive” (Test System: AMES SALMONELLA TYPHIMURIUM, Strain/Indicator: TA97, Metabolic Activation: RAT, LIVER, S-9, PCB, Method: STANDARD PLATE); “inactive; negative” under setting [1]; “active; positive” (Test System: AMES SALMONELLA TYPHIMURIUM, Strain/Indicator: TA98, Metabolic Activation: RAT, LIVER, S-9, PCB, Method: STANDARD PLATE); “inactive; negative” under setting [3]; “active; positive” (Test System: AMES SALMONELLA TYPHIMURIUM, Strain/Indicator: TA100, Metabolic Activation: RAT, LIVER, S-9, PCB, Method: STANDARD PLATE).
